Where two headings read alike, the source gives them in different places. Marks after values point to notes of the source that are not given here.
Experiments:
P388/CPT = experiment: Chemosensitivity of camptothecin-resistant i.p. P388/CPT leukemia, increase in life span; format: in vivo, mice; conditions: for Comment: response of P388/CPT
Protocol: Cross-resistance was measured in murine leukemia cell lines. P388/CPT is a camptothecin-resistant leukemia that was established in vitro (Biochem. Pharmacol., 45: 339 (1993) and maintained in vivo by i.p. passages in DBA2 female mice. The chemosensitivity of i.p. P388/CPT was evaluated with i.v. P388 sensitive reference drugs with different mechanisms of action. Antitumor efficacy was determined at the highest non-toxic dose as percent increase in life span (ILS), where:
ILS=100×[(median day of death (MDD) of treated mice)−(MDD control mice)]÷(MDD control mice)
A minimal level of activity equals an ILS of greater than 26%. […] Table III tabulates the results from this study.

MA16/C, sc = test system: MA16/C, sc
Protocol: (§1) This efficacy may be quantified, for example by the log10 cell kill, which is determined by the following formula:
(§2) log10 cell kill=T-C(days)/3.32×Td
(§3) in which T-C represents the time taken for the cells to grow, which is the mean time in days for the tumors of the treated group (T) to reach a predetermined value (1 g for example) and the tumors of the control group (C) to reach the same value, and Td represents the time in days needed for the volume of the tumor in the control group to double (T. H. Corbett et al., Cancer, 40: 2660-2680 (1977); F. M. Schabel et al., Cancer Drug Development, Part B, Methods in Cancer Research, 17: 3-51, New York, Academic Press Inc. (1979)). A product is considered to be active if the log10 cell kill is greater than or equal to 0.7. A product is considered to be very active if the log10 cell kill is greater than 2.8.
The effectiveness of irinotecan combination chemotherapy methods were tested in a dose response study in a murine tumor model. Three arms were evaluated for tolerance and efficacy. Tolerance was measured by mortality, body weight loss at nadir, host recovery time, and combination toxicity index. Efficacy end points for solid tumor models were tumor growth delay (T/C), log10 cell kill (LCK, defined above), tumor regressions (i.e., complete remission (CR),or partial remission (PR)). For non-solid tumors, such as leukemia, efficacy was measured as the increase in life span (ILS).
Combination toxicity index (CTI) was calculated as the sum of the fraction of LD10's for each agent used in each combination (Cancer Treatment Reports, 66(5): 1187-1200 (1982)). The LD10 for the single agent was obtained by plotting the toxicity of that agent and the dosage in mg/kg as a log probit graph. Subsequently, the CTI LD10 was obtained by plotting as a log probit graph the observed lethality and the corresponding CTI calculated as the sum of the fraction of the LD10 of each single agent. When the CTI equals one, only 50% of the LD10's of each agent can be used in combination without additional toxicity, and when the CTI equals two, 100% of the LD10's of each agent can be used in combination without additional toxicity.

[1] = test system: mammary adenocarcinoma MA16/C/sp
Protocol: as §1, §2, §3
The effect of the combination of CPT-11 and cyclophosphamide was evaluated in a three arn study in mice bearing mammary adenocarcinoma MA16/C/sp. In the first arm, four dose levels of CPT-11 were given orally on days three through seven. In the second arm, five dose levels of cyclophosphamide were given intravenously on days three, five and seven. In the combination third arm, eight dosage levels of CPT-11 were administered orally on days three through seven, with administration of eight dosage levels of cyclophosphamide intravenously on days three, five and seven. This third arm illustrated an example of semi-simultaneous administration.

P388 = format: in vivo, mice; conditions: for %ILS: highest non-toxic dose
P03 = experiment: Oral vs i.v. irinotecan, P03 tumor in B6D2F1 mice; format: in vivo; conditions: twice daily; for LCK: optimal total dose
Protocol: as §2
(§4) Three arms were evaluated for tolerance and efficacy.
(§5) The optimal total dose for oral and intravenous administration routes for irinotecan alone in various murine models is indicated in Table II.

C26 = experiment: Oral vs i.v. irinotecan, C26 tumor in BALB/c mice; format: in vivo; conditions: for LCK: optimal total dose
Protocol: as §2, §4, §5

C51 = experiment: Oral vs i.v. irinotecan, C51 tumor in BALB/c mice; format: in vivo; conditions: days 5, 7, 9, 13, 15, twice daily; for LCK: optimal total dose
Protocol: as §2, §4, §5

[2] = Tolerance of oral vs i.v. irinotecan in tumor bearing mice; format: in vivo; conditions: both methods of administration (oral and i.v.)
Protocol: as §4

GOS = experiment: Oral vs i.v. irinotecan, GOS tumor in B6D2F1 mice; format: in vivo; conditions: for LCK: optimal total dose
Protocol: as §2, §4, §5

MA16/C = experiment: Oral vs i.v. irinotecan, MA16/C tumor in C3H/HeN mice; format: in vivo; conditions: for Optimal Total Dose: days 5-9; for LCK: days 5-9, optimal total dose
Protocol: as §2, §4, §5

[3] = CPA i.v. 37.0 mg/kg/adm, days 3, 5, 7
[4] = CPA i.v. 60.0 mg/kg/adm, days 3, 5, 7
[5] = CPA i.v. 97.0 mg/kg/adm, days 3, 5, 7 (HNTD)
[6] = CPA i.v. 156.0 mg/kg/adm, days 3, 5, 7
[7] = CPT-11 p.o. 25.0 mg/kg/adm, days 3-7
[8] = CPT-11 p.o. 40.0 mg/kg/adm, days 3-7 (HNTD)

## O=P1(N(CCCl)CCCl)NCCCO1 (centres unmarked) [CPA, cyclophosphamide]
P388/CPT; i.v., highest non-toxic dose
  %ILS: 153%
  TFS: 1/5
P388/CPT; i.v., listed as Cyclophosphamide
  Comment: sensitive
P388/CPT; i.v., listed as cyclophosphamide
  Comment: very sensitive
MA16/C, sc; cyclophosphamide, i.v. alone, days 3, 5, 7
  HNTD Dose: 291 mg/kg
MA16/C, sc; cyclophosphamide, i.v. alone, days 3, 5, 7, at HNTD
  LCK: 2.8
[1]; CPA i.v. 23.0 mg/kg/adm, days 3, 5, 7
  Comments: Inactive
[1]; [3]
  Comments: Active
  Log10 cell kill: 1.0
  T-C: 3.8 days
  Time for median tumor to reach 750 mg: 12.0 days
[1]; [4]
  Comments: Active
  Log10 cell kill: 1.9
  T-C: 6.9 days
  Time for median tumor to reach 750 mg: 15.1 days
[1]; CPA i.v. 97.0 mg/kg/adm, days 3, 5, 7
  Comments: HNTD Highly Active
[1]; [5]
  Log10 cell kill: 2.8
  T-C: 10.3 days
  Time for median tumor to reach 750 mg: 18.5 days
[1]; [6]
  Comments: Toxic
  Log10 cell kill: NTBA
  T-C (days): NTBA
  Time for median tumor to reach 750 mg in days: NTBA
P388; i.v.
  sensitivity of the camptothecin sensitive cell line: very sensitive
  %ILS: 245%

## CC[C@@]1(O)C(=O)OCc2c1cc1n(c2=O)Cc2cc3ccccc3nc2-1 [CPT, camptothecin]
P388/CPT; sc, highest non-toxic dose
  %ILS: 0%
P388/CPT; sc
  Comment: resistant
P388; sc
  %ILS: 82%

## CCc1c2c(nc3ccc(OC(=O)N4CCC(N5CCCCC5)CC4)cc13)-c1cc3c(c(=O)n1C2)COC(=O)[C@]3(O)CC [CPT-11, irinotecan]
P388/CPT; i.v., highest non-toxic dose
  %ILS: 0%
P388/CPT; i.v.
  Comment: resistant
P03; i.v.
  Optimal Total Dose: 346.2 mg/kg
  LCK: 3.2†
P03; oral
  Optimal Total Dose: 900 mg/kg
  LCK: 3.4†
C26; i.v., twice daily
  Optimal Total Dose: 228 mg/kg
  LCK: 0.7
C26; oral, days 3-7, twice daily
  Optimal Total Dose: 558 mg/kg
  LCK: 0.9
MA16/C, sc; CPT-11, i.v. alone, days 3-7
  HNTD Dose: 200 mg/kg
MA16/C, sc; CPT-11, i.v. alone, days 3-7, at HNTD
  LCK: 2.0
[1]; [7]
  Comments: Active
  Log10 cell kill: 1.1
  T-C: 4.1 days
  Time for median tumor to reach 750 mg: 12.3 days
[1]; CPT-11 p.o. 40.0 mg/kg/adm, days 3-7
  Comments: HNTD Active
[1]; [8]
  Log10 cell kill: 2.0
  T-C: 7.3 days
  Time for median tumor to reach 750 mg: 15.5 days
[1]; CPT-11 p.o. 64.0 mg/kg/adm, days 3-7
  Comments: Toxic
[1]; mouse, in vivo, po, 103 mg/kg
  Comments: Toxic
C51; i.v.
  Optimal Total Dose: 615 mg/kg
  LCK: 3.0
C51; oral
  Optimal Total Dose: 845 mg/kg
  LCK: 2.5
[2]
  body weight loss: 8.5%
  nadir: 7 days post last administration
GOS; i.v., days 3, 5, 7 twice daily
  Optimal Total Dose: 346.2 mg/kg
  LCK: 2.2
GOS; oral, days 3-7, twice daily
  Optimal Total Dose: 900 mg/kg
  LCK: 2.1
P388; i.v.
  %ILS: 91%
MA16/C; i.v.
  Optimal Total Dose: 130.5 mg/kg
  LCK: 2.6
MA16/C; oral
  Optimal Total Dose: 230.5 mg/kg
  LCK: 2.7

— patent US6548488B2, “Composition comprising camptothecin or a camptothecin derivative and an alkylating agent for the treatment of cancer” (priority 2000, dated 2003)
